Test results as given in ChEMBL document CHEMBL3046558, “Effects of inositol 1,2,6-triphosphate on human liver cancer SMMC-7721 cells” (2012).
Activity calls are given as the source filed them. The calls are words filed in the database; no cut-off is given here.

Legend:
SMMC-7721 [1] = assay: Effect on morphology of Homo sapiens (human) SMMC7721 cells assessed as disruption of cell structure at 300 ug/ml after 48 hr using HE staining by optical microscopy; format: functional, cell-based
SMMC-7721 [2] = assay: Antiproliferative activity against Homo sapiens (human) SMMC7721 cells at 50 ug/ml after 72 hr by MTT assay; format: functional
SMMC-7721 [3] = assay: Cell cycle arrest in Homo sapiens (human) SMMC7721 cells assessed as accumulation at G2/M phase at 500 ug/ml after 3 days using PI staining by flow cytometry (Rvb =11.5 %); format: functional
SMMC-7721 [4] = assay: Cell cycle arrest in Homo sapiens (human) SMMC7721 cells assessed as accumulation at G2/M phase at 300 ug/ml after 3 days using PI staining by flow cytometry (Rvb =11.5 %); format: functional
SMMC-7721 [5] = assay: Cell cycle arrest in Homo sapiens (human) SMMC7721 cells assessed as accumulation at S phase at 300 ug/ml after 3 days using PI staining by flow cytometry (Rvb =49.5 %); format: functional
SMMC-7721 [6] = assay: Cell cycle arrest in Homo sapiens (human) SMMC7721 cells assessed as accumulation at S phase at 500 ug/ml after 3 days using PI staining by flow cytometry (Rvb =49.5 %); format: functional
SMMC-7721 [7] = assay: Cell cycle arrest in Homo sapiens (human) SMMC7721 cells assessed as accumulation at G0/G1 phase at 500 ug/ml after 3 days using PI staining by flow cytometry (Rvb =39 %); format: functional
SMMC-7721 [8] = assay: Inhibition of PCNA expression in nucleolus of Homo sapiens (human) SMMC7721 cells […] after 48 hr by immunohistochemistry analysis; format: functional, cell-based
SMMC-7721 [9] = assay: Inhibition of AFP expression in nucleolus of Homo sapiens (human) SMMC7721 cells […] after 48 hr by immunohistochemistry analysis; format: functional, cell-based
SMMC-7721 [10] = assay: Antiproliferative activity against Homo sapiens (human) SMMC7721 cells at 300 ug/ml after 72 hr by MTT assay; format: functional
SMMC-7721 [11] = assay: Cell cycle arrest in Homo sapiens (human) SMMC7721 cells assessed as accumulation at G2/M phase at 100 ug/ml after 3 days using PI staining by flow cytometry (Rvb =11.5 %); format: functional
SMMC-7721 [12] = assay: Antiproliferative activity against Homo sapiens (human) SMMC7721 cells after 1 to 3 days by MTT assay; format: functional, cell-based
SMMC-7721 [13] = assay: Inhibition of AFP expression in cytoplasm of Homo sapiens (human) SMMC7721 cells […] after 48 hr by immunohistochemistry analysis; format: functional, cell-based
SMMC-7721 [14] = assay: Cell cycle arrest in Homo sapiens (human) SMMC7721 cells assessed as accumulation at G0/G1 phase at 300 ug/ml after 3 days using PI staining by flow cytometry (Rvb =39 %); format: functional
SMMC-7721 [15] = assay: Antiproliferative activity against Homo sapiens (human) SMMC7721 cells at 500 ug/ml after 72 hr by MTT assay; format: functional
SMMC-7721 [16] = assay: Antiproliferative activity against Homo sapiens (human) SMMC7721 cells at 700 ug/ml after 72 hr by MTT assay; format: functional
SMMC-7721 [17] = assay: Cell cycle arrest in Homo sapiens (human) SMMC7721 cells assessed as accumulation at S phase at 100 ug/ml after 3 days using PI staining by flow cytometry (Rvb =49.5 %); format: functional
SMMC-7721 [18] = assay: Effect on morphology of Homo sapiens (human) SMMC7721 cells assessed as cell detachment from matrix at 300 ug/ml after 48 hr using HE staining by optical microscopy; format: functional, cell-based
SMMC-7721 [19] = assay: Cell cycle arrest in Homo sapiens (human) SMMC7721 cells assessed as accumulation at G0/G1 phase at 100 ug/ml after 3 days using PI staining by flow cytometry (Rvb =39 %); format: functional
SMMC-7721 [20] = assay: Antiproliferative activity against Homo sapiens (human) SMMC7721 cells at 50 to 700 ug/ml by MTT assay; format: functional, cell-based; settings: TDE = time-dependent effect
SMMC-7721 [21] = assay: Antiproliferative activity against Homo sapiens (human) SMMC7721 cells at 100 ug/ml after 72 hr by MTT assay; format: functional

O=P(O)(O)O[C@@H]1[C@H](OP(=O)(O)O)[C@H](O)[C@@H](O)[C@H](O)[C@H]1OP(=O)(O)O [ATRINOSITOL] was tested, and the Activity (SMMC-7721 [1]) was “Active”, the Activity (SMMC-7721 [2]) was 34.87% and the Activity (SMMC-7721 [3]) was 19.9%. For the same compound, the Activity (SMMC-7721 [4]) was 10.6%, the Activity (SMMC-7721 [5]) was 30.5% and the Activity (SMMC-7721 [6]) was 12.3%. The Activity (SMMC-7721 [7]) was 68.1%, the inhibition (SMMC-7721 [8]) was “Dose-dependent effect” and the inhibition (SMMC-7721 [9]) was “Dose-dependent effect”. The Activity (SMMC-7721 [10]) was 59.52%, the Activity (SMMC-7721 [11]) was 21.6% and the Activity (SMMC-7721 [12]) was “Dose-dependent effect”. For the same compound, the inhibition (SMMC-7721 [13]) was “Dose-dependent effect”, the Activity (SMMC-7721 [14]) was 58.9% and the Activity (SMMC-7721 [15]) was 67.86%. The Activity (SMMC-7721 [16]) was 79.08%, the Activity (SMMC-7721 [17]) was 39% and the Activity (SMMC-7721 [18]) was “Active”. The Activity (SMMC-7721 [19]) was 39.4%, the Activity (SMMC-7721 [20]) was “tde” and the Activity (SMMC-7721 [21]) was 50.85%.
